Experimental data from US11767341B2, “Lincosamide antibiotics and uses thereof” (President and Fellows of Harvard College, priority 2017, dated 2023).
Values after ≈ are worked out from the molar mass of the structure shown. Like-named read-outs stand apart in the source and are kept apart here.

Experiments:
Experiment in all cases: MIC determination
Assay type in all cases: cell-based
E. faecalis ATCC 29212 = details: Enterococcus faecalis, ATCC29212, read-out: MIC
H. influenzae ATCC 49247 = details: Haemophilus influenzae, ATCC49247
[1] = test system: E. faecalis MMX 847 Macrolide-Resistant; details: Enterococcus faecalis, read-out: MIC
E. coli MP-9 ΔTolC = details: Escherichia coli
S. pneumoniae ATCC 49619 = details: Streptococcus pneumoniae, ATCC49619; S. pneumoniae ATCC 49619; read-out: MIC
S. pyogenes ATCC 19615 = details: Streptococcus pyogenes, ATCC19615; S. pyogenes ATCC 19615; read-out: MIC
K. pneumoniae ATCC 10031 = details: Klebsiella pneumoniae, ATCC10031
E. coli ATCC 25922 = details: Escherichia coli, ATCC25922, E. coli ATCC 25922; read-out: MIC
S. aureus MMX 3035 cErmA = details: Staphylococcus aureus, MMX3035CERMA; S. aureus MMX 3035 cErmA; read-out: MIC
[2] = test system: S. pyogenes MMX 946 Macrolide-Resistant; details: Streptococcus pyogenes
[3] = test system: S. aureus MP-549 msr(a) USA 300; details: Staphylococcus aureus, USA300, S. aureus MP-549 msr(a) USA 300
[4] = test system: E. coli MP-74 LptD mutant; details: Escherichia coli
[5] = test system: S. pneumoniae MMX 3028 cErmB; details: Streptococcus pneumoniae, MMX3028CERMB
[6] = test system: S. pneumoniae MMX 3031 cMefA; details: Streptococcus pneumoniae, MMX3031CMEFA
S. aureus BAA 977 iErmA = details: Staphylococcus aureus, BAA977
S. aureus ATCC 29213 = details: Staphylococcus aureus, ATCC29213, S. aureus ATCC 29213; read-out: MIC
[7] = H. influenzae ATCC 49247, read-out: MIC
[8] = E. faecalis MMX 847 Macrolide-Resistant (MacRes)
[9] = S. pyogenes MMX 946 Macrolide-Resistant (MacRes), read-out: MIC
[10] = K. pneumoniae ATCC 10031, read-out: MIC
[11] = S. pyogenes MMX 946 MacRes, read-out: MIC
[12] = S. pneumoniae MMX 3028 cErmB, read-out: MIC

Row | Structure (SMILES) | MIC (E. faecalis ATCC 29212) | MIC (H. influenzae ATCC 49247; [7]) | MIC (E. coli MP-9 ΔTolC) | MIC (S. pneumoniae ATCC 49619) | MIC (S. pyogenes ATCC 19615) | MIC (K. pneumoniae ATCC 10031) | MIC (E. coli ATCC 25922) | MIC (S. aureus MMX 3035 cErmA) | MIC [3] | MIC [4] | MIC [5] | MIC [6] | MIC (S. aureus BAA 977 iErmA) | MIC (S. aureus ATCC 29213) | MIC ([1]; E. faecalis MMX 847 MacRes) | MIC [2, 11] | MIC [5, 12] | MIC (H. influenzae ATCC 49247) | also measured
1 | CSC1O[C@H]([C@H](NC(=O)[C@H]2NC[C@@H]3C=C(c4cc(F)cc(F)c4)CCO[C@@H]23)[C@H](C)Cl)C(O)[C@@H](O)[C@H]1O (some centres unmarked) [FSA-511074] | 4 µg/mL (≈ 7.29 µM) | > 64 µg/mL | 64 µg/mL (≈ 117 µM) | 0.25 µg/mL (≈ 0.455 µM) | 0.5 µg/mL (≈ 0.911 µM) | 64 µg/mL (≈ 117 µM) | > 64 µg/mL | > 64 µg/mL | 1 µg/mL (≈ 1.82 µM) | 64 µg/mL (≈ 117 µM) | 64 µg/mL (≈ 117 µM) | 0.25 µg/mL (≈ 0.455 µM) | 2 µg/mL (≈ 3.64 µM) | 2 µg/mL (≈ 3.64 µM) |  |  |  |  | MIC [1, 8]: > 64 µg/mL; MIC [2, 9]: > 64 µg/mL
2 | CSC1O[C@H]([C@H](NC(=O)[C@H]2NC[C@@H]3C[C@@H](c4ccc(F)cc4F)CCO[C@H]32)[C@H](C)Cl)C(O)[C@@H](O)[C@H]1O (some centres unmarked) [FSA-511078] | 0.25 µg/mL (≈ 0.454 µM) | 16 µg/mL (≈ 29 µM) | 2 µg/mL (≈ 3.63 µM) | ≤ 0.06 µg/mL | ≤ 0.06 µg/mL |  | > 64 µg/mL | > 64 µg/mL | 0.12 µg/mL (≈ 0.218 µM) | 8 µg/mL (≈ 14.5 µM) |  | ≤ 0.06 µg/mL | 0.25 µg/mL (≈ 0.454 µM) | 0.25 µg/mL (≈ 0.454 µM) | 64 µg/mL (≈ 116 µM) | 16 µg/mL (≈ 29 µM) | 4 µg/mL (≈ 7.26 µM) |  | MIC (K. pneumoniae ATCC 10031; [10]): 8 µg/mL (≈ 14.5 µM)
3 | CSC1O[C@H]([C@H](NC(=O)[C@H]2NC[C@@H]3C[C@@H](CCc4ccccc4)CCO[C@H]32)[C@H](C)Cl)C(O)[C@@H](O)[C@H]1O (some centres unmarked) [FSA-510021] | 0.25 µg/mL (≈ 0.46 µM) | 1 µg/mL (≈ 1.84 µM) | 4 µg/mL (≈ 7.36 µM) | ≤ 0.06 µg/mL | ≤ 0.06 µg/mL |  | 64 µg/mL (≈ 118 µM) | 4 µg/mL (≈ 7.36 µM) | 0.125 µg/mL (≈ 0.23 µM) | 4 µg/mL (≈ 7.36 µM) |  | ≤ 0.06 µg/mL | 0.125 µg/mL (≈ 0.23 µM) | 0.125 µg/mL (≈ 0.23 µM) | 4 µg/mL (≈ 7.36 µM) | 1 µg/mL (≈ 1.84 µM) | 4 µg/mL (≈ 7.36 µM) |  | MIC (K. pneumoniae ATCC 10031; [10]): 4 µg/mL (≈ 7.36 µM)
4 | COc1ccc([C@@H]2CCO[C@@H]3[C@H](CN[C@@H]3C(=O)N[C@H]([C@H](C)Cl)[C@H]3OC(SC)[C@H](O)[C@H](O)C3O)C2)cc1 (some centres unmarked) [FSA-512080c] | 2 µg/mL (≈ 3.67 µM) |  | 8 µg/mL (≈ 14.7 µM) | ≤ 0.06 µg/mL | ≤ 0.06 µg/mL |  | > 128 µg/mL | 128 µg/mL (≈ 235 µM) | 0.5 µg/mL (≈ 0.917 µM) | 32 µg/mL (≈ 58.7 µM) |  | 0.12 µg/mL (≈ 0.22 µM) | 0.5 µg/mL (≈ 0.917 µM) | 0.25 µg/mL (≈ 0.459 µM) | 128 µg/mL (≈ 235 µM) | 64 µg/mL (≈ 117 µM) | 16 µg/mL (≈ 29.4 µM) | 32 µg/mL (≈ 58.7 µM) | 
5 | CSC1O[C@H]([C@H](NC(=O)[C@H]2NC[C@@H]3C[C@H](c4ccc(C#N)cc4)CCO[C@H]32)[C@H](C)Cl)C(O)[C@@H](O)[C@H]1O (some centres unmarked) [FSA-512081b] | 1 µg/mL (≈ 1.85 µM) |  | 8 µg/mL (≈ 14.8 µM) | ≤ 0.06 µg/mL | ≤ 0.06 µg/mL |  | 128 µg/mL (≈ 237 µM) | 128 µg/mL (≈ 237 µM) | 1 µg/mL (≈ 1.85 µM) | 32 µg/mL (≈ 59.3 µM) | 16 µg/mL (≈ 29.6 µM) | 0.12 µg/mL (≈ 0.222 µM) | 1 µg/mL (≈ 1.85 µM) | 0.25 µg/mL (≈ 0.463 µM) | 128 µg/mL (≈ 237 µM) |  |  | 16 µg/mL (≈ 29.6 µM) | MIC [2]: 32 µg/mL (≈ 59.3 µM)
6 | CSC1O[C@H]([C@H](NC(=O)[C@H]2NC[C@@H]3C=C(c4ccc(F)cc4F)CCO[C@@H]23)[C@H](C)Cl)C(O)[C@@H](O)[C@H]1O (some centres unmarked) [FSA-511072] | 4 µg/mL (≈ 7.29 µM) | > 64 µg/mL | 32 µg/mL (≈ 58.3 µM) | 0.12 µg/mL (≈ 0.219 µM) | 0.25 µg/mL (≈ 0.455 µM) | 32 µg/mL (≈ 58.3 µM) | > 64 µg/mL | > 64 µg/mL | 1 µg/mL (≈ 1.82 µM) | 64 µg/mL (≈ 117 µM) | 64 µg/mL (≈ 117 µM) | 0.12 µg/mL (≈ 0.219 µM) | 1 µg/mL (≈ 1.82 µM) | 1 µg/mL (≈ 1.82 µM) |  |  |  |  | MIC [1, 8]: > 64 µg/mL; MIC [2, 9]: > 64 µg/mL
7 | CSC1O[C@H]([C@H](NC(=O)[C@H]2NC[C@@H]3C[C@@H](c4cc(F)cc(F)c4)CCO[C@H]32)[C@H](C)Cl)C(O)[C@@H](O)[C@H]1O (some centres unmarked) [FSA-511080] | 0.5 µg/mL (≈ 0.907 µM) |  | 4 µg/mL (≈ 7.26 µM) | ≤ 0.06 µg/mL | ≤ 0.06 µg/mL | 16 µg/mL (≈ 29 µM) | > 64 µg/mL | > 64 µg/mL | 0.25 µg/mL (≈ 0.454 µM) | 16 µg/mL (≈ 29 µM) |  | ≤ 0.06 µg/mL | 0.25 µg/mL (≈ 0.454 µM) | 0.12 µg/mL (≈ 0.218 µM) | > 64 µg/mL | 32 µg/mL (≈ 58.1 µM) | 8 µg/mL (≈ 14.5 µM) | 16 µg/mL (≈ 29 µM) | 
